Experimental data published in patent US20250154169A1, “COMPOUNDS AND METHODS FOR MODULATING SPLICING” (REMIX THERAPEUTICS INC., priority 2021, published 2025).

How the values were obtained:
[1] = tested on: HTT mRNA; assay: Splicing RT-qPCR assay, HTT canonical (CJ) and alternative (AJ) junction mRNA; format: cell-based, human; conditions: Homo sapiens, A673 or K562 cells, 24 hours compound treatment; for IC50: 24 h, read-out: HTT CJ (IC50, decrease in canonical junction mRNA); for AC50: read-out: HTT AJ (AC50, increase in alternative junction mRNA)
Protocol: (§1) Compounds described herein were used to modulate RNA transcript abundance in cells. The expression of a target mRNA was measured by detecting the formation of an exon-exon junction in the canonical transcript (CJ). A compound mediated exon-inclusion event was detected by observing an increase in formation of a new junction with an alternative exon (AJ). Real-time qPCR assays were used to detect these splicing switches and interrogate the potency of various compounds towards different target genes. A high-throughput real time quantitative PCR (RT-qPCR) assay was developed to measure these two isoforms of the mRNA (CJ and AJ) for exemplary genes, such as HTT, SMN2, and MYB, together with a control housekeeping gene, GAPDH or GUSB or PPIA, used for normalization. Briefly, the A673 or K562 cell line was treated with various compounds described herein (e.g., compounds of Formula (I)). After treatment, the levels of the HTT, MYB, or SMN2 mRNA targets were determined from each sample of cell lysate by cDNA synthesis followed by qPCR.
(§2) • Cells-to-CT 1-step kit: ThermoFisher A25602, Cells-to-CT lysis reagent: ThermoFisher 4391851C, TaqMan™ Fast Virus 1-Step Master Mix: ThermoFisher 4444436 • GAPDH: VIC-PL, ThermoFisher 4326317E (Assay: Hs99999905_m1)—used for K562/suspension cell lines • GUSB: VIC-PL, ThermoFisher 4326320E (Assay: Hs99999908_m1)—used for K562/suspension cell lines • PPIA: VIC-PL, ThermoFisher 4326316E (Assay: Hs99999904_m1)—used for A673/adherent cell lines
(§3) The A673 cell line was cultured in DMEM with 10% FBS. Cells were diluted with full growth media and plated in a 96-well plate (15,000 cells in 100 ul media per well). The plate was incubated at 37° C. with 5% CO2 for 24 hours to allow cells to adhere. An 11-point 3-fold serial dilution of the compounds was made in DMSO then diluted in media in an intermediate plate. Compounds were transferred from the intermediate plate to the cell plate with the top dose at a final concentration of 10 uM in the well. Final DMSO concentration was kept at or below 0.25%. The cell plate was returned to the incubator at 37° C. with 5% CO2 for an additional 24 hours.
(§4) The K562 cell line was cultured in IMDM with 10% FBS. For K562, cells were diluted with full growth media and plated in either a 96-well plate (50,000 cells in 50 uL media per well) or a 384-well plate (8,000-40,000 cells in 45 uL media per well). An 11-point 3-fold serial dilution of the compounds were made in DMSO then diluted in media in an intermediate plate. Compound was transferred from the intermediate plate to the cell plate with the top dose at a final concentration of 10 uM in the well. Final DMSO concentration was kept at or below 0.25%. Final volume was 100 uL for 96-well plate and 50 uL for 384-well plate. The cell plate was then placed in an incubator at 37° C. with 5% CO2 for 24 hours.
(§5) The cells were then gently washed with 50 uL-100 uL cold PBS before proceeding to addition of lysis buffer. 30 uL-50 uL of room temperature lysis buffer with DNAse I (and optionally RNAsin) was added to each well. Cells were shaken/mixed thoroughly at room temperature for 5-10 minutes for lysis to take place and then 3 uL-5 uL of room temperature stop solution was added and wells were shaken/mixed again. After 2-5 minutes, the cell lysate plate was transferred to ice for RT-qPCR reaction setup. The lysates could also be frozen at −80° C. for later use.
(§6) In some cases, a direct lysis buffer was used. An appropriate volume of 3× lysis buffer (10 mM Tris, 150 mM NaCl, 1.5%-2.5% Igepal and 0.1-1 U/uL RNAsin, pH 7.4) was directly added to either K562 or A673 cells in media and mixed by pipetting 3 times. The plates were then incubated at room temperature with shaking/rocking for 20-50 minutes to allow for lysis to take place. After this time, the cell lysate plate was transferred to ice to set up for the RT-qPCR reactions. The lysates could also be frozen at −80° C. for later use. […]

[2] = tested on: MYB mRNA; assay: Splicing RT-qPCR assay, MYB canonical (CJ) and alternative (AJ) junction mRNA; format: cell-based, human; conditions: Homo sapiens, 24 h, A673 or K562 cells, 24 hours compound treatment, RT-qPCR; for AC50: read-out: MYB AJ (AC50, increase in alternative junction mRNA); for IC50: read-out: MYB CJ (IC50, decrease in canonical junction mRNA)
Protocol: as §1, §2, §3, §4, §5, §6

SMILES	IC50 [1] [nM]	IC50 [2] [nM]	AC50 [1] [nM]	AC50 [2] [nM]
CCn1cc2c(N3CC4(CCCN4)C3)ccc(C(=O)Nc3cc(F)c4nc(C)cn4c3)c2n1 [Compound 482, 4-{2,5-diazaspiro[3.4]octan-2-yl}-2-ethyl-N-{8-fluoro-2-methylimidazo[1,2-a]pyridin-6-yl}indazole-7-carboxamide]	> 10000	1000 to 10000	> 10000	1000 to 10000
Cc1cc(NC(=O)c2ccc(N3CCNCC3)c3cn(C)nc23)c(O)c2cn(C)nc12 [Compound 484, N-(4-hydroxy-2,7-dimethylindazol-5-yl)-2-methyl-4-(piperazin-1-yl) indazole-7-carboxamide]	> 10000	> 10000	> 10000	> 10000
Cc1cn2cc(NC(=O)c3ccc(N4CCOCC4)c4cn(C)nc34)cc(F)c2n1 [Compound 486, N-{8-fluoro-2-methylimidazo[1,2-a]pyridin-6-yl}-2-methyl-4-(morpholin-4-yl) indazole-7-carboxamide]	100 to 1000	100 to 1000	100 to 1000	100 to 1000
Cc1cn2cc(NC(=O)c3ccc(N4CCCC4)c4cn(C)nc34)cc(F)c2n1 [Compound 487, N-{8-fluoro-2-methylimidazo[1,2-a]pyridin-6-yl}-2-methyl-4-(pyrrolidin-1-yl) indazole-7-carboxamide]	1000 to 10000	1000 to 10000	1000 to 10000	1000 to 10000
Cc1nnc2ccc(NC(=O)c3ccc(N4CCNCC4)c4cn(C)nc34)cn12 [Compound 488, 2-methyl-N-{3-methyl-[1,2,4]triazolo[4,3-a]pyridin-6-yl}-4-(piperazin-1-yl) indazole-7-carboxamide]	> 10000	> 10000	> 10000	> 10000
Cc1nc2cc(NC(=O)c3ccc(N4CCNCC4)c4cn(C)nc34)ccn2n1 [Compound 489, 2-methyl-N-{2-methyl-[1,2,4]triazolo[1,5-a]pyridin-7-yl}-4-(piperazin-1-yl) indazole-7-carboxamide]	> 10000	> 10000	> 10000	> 10000
Cc1cn2cc(NC(=O)c3ccc(N4CCNCC4)c4c[nH]nc34)cc(F)c2n1 [Compound 490, N-{8-fluoro-2-methylimidazo[1,2-a]pyridin-6-yl}-4-(piperazin-1-yl)-2H-indazole-7-carboxamide]	> 10000	1000 to 10000	> 10000	1000 to 10000
CCn1cc2c(N3CC4(CCNC4)C3)ccc(C(=O)Nc3cc(F)c4nc(C)cn4c3)c2n1 [Compound 491, 4-{2,6-diazaspiro[3.4]octan-2-yl}-2-ethyl-N-{8-fluoro-2-methylimidazo[1,2-a]pyridin-6-yl}indazole-7-carboxamide]	1000 to 10000	100 to 1000	> 10000	1000 to 10000
CN1CCN(c2ccc(C(=O)Nc3cc(F)c4nc(CO)oc4c3)c3nn(C)cc23)CC1 [Compound 494, N-[4-fluoro-2-(hydroxymethyl)-1,3-benzoxazol-6-yl]-2-methyl-4-(4-methylpiperazin-1-yl) indazole-7-carboxamide]	> 10000	> 10000	> 10000	> 10000
CCn1cc2c(OC3CCNC3)ccc(C(=O)Nc3cc(F)c4nc(C)cn4c3)c2n1 (stereo not drawn) [Compound 498, 2-ethyl-N-{8-fluoro-2-methylimidazo[1,2-a]pyridin-6-yl}-4-(pyrrolidin-3-yloxy) indazole-7-carboxamide]	100 to 1000	100 to 1000	1000 to 10000	100 to 1000
CCNC1CCN(c2ccc(C(=O)Nc3cn4cc(C)nc4c(F)c3OC)c3oc(C)cc23)CC1 [Compound 501, 4-(4-(ethylamino)piperidin-1-yl)-N-(8-fluoro-7-methoxy-2-methylimidazo[1,2-a]pyridin-6-yl)-2-methylbenzofuran-7-carboxamide 2,2,2-trifluoroacetate]	< 100	< 100	< 100	< 100

Second part, led by results:

IC50 [1] [nM]	IC50 [2] [nM]	SMILES	AC50 [1] [nM]	AC50 [2] [nM]
1000 to 10000	< 100	CCn1cc2c(N3CC[C@@H](NC)C3)cc(F)c(C(=O)Nc3cc(F)c4nc(C)cn4c3)c2n1 [Compound 479, 2-ethyl-6-fluoro-N-{8-fluoro-2-methylimidazo[1,2-a]pyridin-6-yl}-4-[(3R)-3-(methylamino)pyrrolidin-1-yl]indazole-7-carboxamide; trifluoroacetic acid]	1000 to 10000	< 100
100 to 1000	< 100	CCn1cc2c(N3CCN(C)CC3)cc(F)c(C(=O)Nc3cc(F)c4nc(C)cn4c3)c2n1 [Compound 481, 2-ethyl-6-fluoro-N-{8-fluoro-2-methylimidazo[1,2-a]pyridin-6-yl}-4-(4-methylpiperazin-1-yl) indazole-7-carboxamide]	1000 to 10000	100 to 1000
1000 to 10000	100 to 1000	CCn1cc2c(N3CC4(CCNCC4)C3)ccc(C(=O)Nc3cc(F)c4nc(C)cn4c3)c2n1 [Compound 492, 4-{2,7-diazaspiro[3.5]nonan-2-yl}-2-ethyl-N-{8-fluoro-2-methylimidazo[1,2-a]pyridin-6-yl}indazole-7-carboxamide]	> 10000	1000 to 10000
> 10000	> 10000	CO[C@H]1C[C@H](n2cc3c(N4CCNCC4)ccc(C(=O)Nc4cc(F)c5nc(C)cn5c4)c3n2)C1 [Compound 496, Cis-N-(8-fluoro-2-methylimidazo[1,2-a]pyridin-6-yl)-2-((1s,3s)-3-methoxycyclobutyl)-4-(piperazin-1-yl)-2H-indazole-7-carboxamide 2,2,2-trifluoroacetate]	> 10000	> 10000
100 to 1000	< 100	Cc1cn2cc(NC(=O)c3ccc(N4CCNCC4)c4cn(CC5COC5)nc34)cc(F)c2n1 [Compound 497, N-{8-fluoro-2-methylimidazo[1,2-a]pyridin-6-yl}-2-(oxetan-3-ylmethyl)-4-(piperazin-1-yl) indazole-7-carboxamide]	100 to 1000	< 100
> 10000	> 10000	Cn1cc2c(N3CCNCC3)ccc(C(=O)Nc3ccc4c(c3)oc(=O)n4C)c2n1 [Compound 499, 2-methyl-N-(3-methyl-2-oxo-2,3-dihydrobenzo[d]oxazol-6-yl)-4-(piperazin-1-yl)-2H-indazole-7-carboxamide]	> 10000	> 10000
> 10000	> 10000	CCNC1CCN(c2ccc(C/N=C3\C=C(F)c4nc(C)cn4C3)c3nn(C)cc23)CC1 [Compound 500, N-ethyl-1-[7-({[(6E)-8-fluoro-2-methyl-5H-imidazo[1,2-a]pyridin-6-ylidene]amino}methyl)-2-methylindazol-4-yl]piperidin-4-amine]	> 10000	> 10000
